# Test results taken from patent US4697036A, “Process for the preparation of optically active alpha-arylalkanoic acids and novel intermediates thereof” (Zambon S.p.A., priority 1984, dated 1987).
# Tests used:
# Type in all cases: in vivo
# [1] = Anti-inflammatory activity by oral administration; conditions: for ED50: oral, dose column in μM/kg/os, after 3 h, read-out: ED50 (L.C. 95%)
# Source text: A further unexpected property of the compounds of formula (C) is that they are in themselves pharmacologically active compounds. […] The following tables give the data relative to the anti-inflammatory and antipyretic activity of the compounds (D) in which: |Anti-inflammatory activity of the derivatives (a) and |(b) with respect to Naproxen and 5-bromo-Naproxen (c) |by oral administration
# [2] = Antipyretic activity by oral administration in rats (change in body temperature)
# Source text: Antipyretic activity of compound (a) and (b) with respect to
# Naproxen and 5-bromo-Naproxen (c)
# by oral administration in rats
# [3] = Antipyretic activity by peritoneal administration in rats (change in body temperature); conditions: peritoneal administration (title)
Structure (SMILES),Inhibition (after 3 h) ([1]; 10 μM/kg/os),Inhibition (after 3 h) ([1]; 30 μM/kg/os),Inhibition (after 3 h) ([1]; 100 μM/kg/os),ED50 [1],Change in body temperature after 1 hour ([2]; 10 μM/kg/oral),Change in body temperature after 2 hours ([2]; 10 μM/kg/oral),Change in body temperature after 1 hour ([2]; 30 μM/kg/oral),Change in body temperature after 2 hours ([2]; 30 μM/kg/oral),Change in body temperature after 1 hour ([2]; 100 μM/kg/oral),Change in body temperature after 2 hours ([2]; 100 μM/kg/oral),Change in body temperature after 1 hour ([2]; 300 μM/kg/oral),Change in body temperature after 2 hours ([2]; 300 μM/kg/oral),Change in body temperature after 30 min ([3]; 10 μM/kg),Change in body temperature after 1 hour ([3]; 10 μM/kg),Change in body temperature after 4 hours ([3]; 10 μM/kg),Change in body temperature after 30 min ([3]; 30 μM/kg),Change in body temperature after 1 hour ([3]; 30 μM/kg),Change in body temperature after 4 hours ([3]; 30 μM/kg),other results
COC(=O)C(O)C(OC(=O)C(C)c1ccc2cc(OC)ccc2c1)C(=O)OC (stereo not shown) [(a)],0%,0%,16%,175 µmol/kg,-0.02 °C,+0.02 °C,+0.07 °C,-0.61 °C,+0.01 °C,-0.76 °C,+0.03 °C,-0.81 °C,-0.26 °C,-0.52 °C,-0.19 °C,-0.61 °C,-1.02 °C,-0.56 °C,–
COC(=O)C(O)C(OC(=O)C(C)c1ccc2c(Br)c(OC)ccc2c1)C(=O)OC (stereo not shown) [(b)],3%,14%,20%,160 µmol/kg,-0.17 °C,-0.19 °C,-0.49 °C,-0.68 °C,-0.46 °C,-0.68 °C,–,–,-0.24 °C,-0.52 °C,-0.26 °C,-0.77 °C,-0.87 °C,-0.44 °C,–
"COc1ccc2cc([C@H](C)C(=O)O)ccc2c1Br [(c), S(+)-2-(5-bromo-6-methoxy-2-naphthyl)-propionic acid, reference compound]",6%,34%,34%,196 µmol/kg,–,–,-0.17 °C,-0.66 °C,-1.33 °C,-1.67 °C,-1.42 °C,-1.84 °C,–,–,–,-0.55 °C,-1.01 °C,+0.06 °C,Inhibition (after 3 h) ([1]; 300 μM/kg/os): 56%; Change in body temperature after 30 min ([3]; 100 μM/kg): -0.78 °C; Change in body temperature after 1 hour ([3]; 100 μM/kg): -1.45 °C; Change in body temperature after 4 hours ([3]; 100 μM/kg): -0.99 °C
"COc1ccc2cc([C@H](C)C(=O)O)ccc2c1 [Naproxen, S(+)2-(6-methoxy-2-naphtyl)-propionic acid, reference compound]",38%,45%,66%,31 µmol/kg,-1.22 °C,-1.48 °C,-1.86 °C,-1.89 °C,–,–,–,–,-1.00 °C,-1.10 °C,-0.86 °C,–,–,–,Change in body temperature after 1 hour ([2]; 3 μM/kg/oral): -0.38 °C; Change in body temperature after 2 hours ([2]; 3 μM/kg/oral): -0.52 °C
